In brackets after ≈: the same amount, converted by molar mass.
Legend:
Format in all cases: functional
[1] = test system: Mycobacterium tuberculosis; assay: Antimicrobial activity against Mycobacterium tuberculosis H37Rv harboring ultra-under-expression of BPL by broth microdilution assay
[2] = test system: Mycobacterium tuberculosis; assay: Antimicrobial activity against Mycobacterium tuberculosis H37Rv harboring medium over-expression of BPL by broth microdilution assay
[3] = test system: Mycobacterium tuberculosis; assay: Antimicrobial activity against Mycobacterium tuberculosis H37Rv harboring high over-expression of BPL by broth microdilution assay
[4] = test system: Mycobacterium tuberculosis; assay: Antimicrobial activity against Mycobacterium tuberculosis H37Rv harboring medium under-expression of BPL by broth microdilution assay

Row | Compound | MIC50 [1] [µM] | MIC50 [2] [µM] | MIC50 [3] [µM] | MIC50 [4] [µM]
1 | CC(CCC[C@@H]1SC[C@@H]2NC(=O)N[C@@H]21)C(=O)[N-]S(=O)(=O)NC[C@H]1O[C@@H](n2cnc3c(N)ncnc32)[C@H](O)[C@@H]1O.[Na+] (some centres undefined) | 0.79 | > 100 | > 100 | 3.7
2 | Nc1ncnc2c1ncn2[C@@H]1O[C@H](CNS(=O)(=O)[N-]C(=O)NCCC[C@@H]2SC[C@@H]3NC(=O)N[C@@H]32)[C@@H](O)[C@H]1O.[Na+] | 0.28 | > 100 | > 100 | 0.89
3 | Nc1ncnc2c1ncn2[C@@H]1O[C@H](CNS(=O)(=O)[N-]C(=O)CCCC[C@@H]2SC[C@@H]3NC(=O)N[C@@H]32)[C@@H](O)[C@H]1O.[Na+] | 0.047 | 11 | 16 | 0.14
4 | Nc1cccc2c1ncn2CCCCNS(=O)(=O)NC(=O)CCCC[C@@H]1SC[C@@H]2NC(=O)N[C@@H]21 | 16 (≈ 8.15 µg/mL) |  |  | 18 (≈ 9.17 µg/mL)

Source: ChEMBL document CHEMBL6153072, “Metabolically Stable Adenylation Inhibitors of Biotin Protein Ligase as Antibacterial Agents” (J Med Chem, 2025)
